In publication PMC9863607, “Combined Use of Antimicrobial Peptides with Antiseptics against Multidrug-Resistant Bacteria: Pros and Cons” (Pharmaceutics, 2023):
Read-outs that look alike come from different tables or passages of the source. Peptide text beside a SMILES is read from it.

Assays:
[1] = test system: human erythrocytes; format: cell-based
Protocol: Hemolytic properties of the test substances and their combinations were assessed as previously described. Whole human blood was collected from healthy donors by venipuncture into sterile EDTA-covered vacuum tubes, diluted 10 times with ice-cold phosphate-buffered saline (PBS) containing 4mM EDTA for the start, and then washed out twice with still ice-cold but anticoagulant-free PBS by a 10 min long centrifugation at 300× g and 4 °C to remove plasma and anticoagulant altogether. […] Samples were incubated for 30 min at 37 °C and then supplied with 90 µL of ice-cold PBS to stop further hemolysis. Remaining RBCs or their debris were precipitated by 4 min of centrifugation at 10,000× g and room temperature, and 100 µL of the supernatants was transferred to a 96-well clear flat-bottom test plate to spectrophotometrically detect hemoglobin released from the damaged RBCs. OD was measured at 540 nm—one of the hemoglobin absorbance maxima. The samples with 6 µL of pure PBS (with no potentially hemolytic agents) were used as a 0% lysis reference point. Experimental samples were compared with 0% lysis control by the Mann–Whitney U-test (p < 0.05) to identify statistically significant hemolytic action. In case the exact level of effect was of interest, the samples with 6 µL of 5% v/v Triton X-100 in PBS were also prepared to additionally obtain a 100% lysis reference point and calculate the percentage of hemolysis in test samples as hemolysis (%) = (ODsample − OD0% lysis)/(OD100% lysis − OD0% lysis) × 100%. At least three independent repeats were performed.
The absence “–” or presence “+” of a statistically significant difference compared with the intact control once exposed to the action of combinations of AMPs and antiseptics in concentrations equal to ½ or ¼ of their individual MECH was evaluated in a series of three independent experiments.

[2] = test system: A. baumannii 7226/16; experiment: Crystal violet assay of biofilm formation; format: cell-based, Acinetobacter baumannii; conditions: median of 3 independent experiments; for MECBF partially inhibiting bacterial biofilms: minimal concentration with significant decrease vs intact control (Mann–Whitney, p < 0.05), 24 h, 37 °C, MHB; for Minimal FECI, AMP + CAPB, biofilm formation: combination with cocamidopropyl betaine; for Minimal FECI, AMP + DXD, biofilm formation: combination with dioxydin; for Minimal FECI, AMP + ETA, biofilm formation: combination with etidronic acid; for Minimal FECI, AMP + PTS, biofilm formation: combination with prontosan
Protocol: The impact of the tested antimicrobials and their combinations on the formation of biofilms was quantitated as per the crystal violet assay protocol published by Merritt et al.. Testing was performed in 96-well immunological plates with U-shaped bottoms. Overnight cultures of tested bacteria in MHB were diluted by a factor of 50, mixed 1:1 with 50 μL of active compounds or combinations in the same growth medium adjusted to double the desired final concentration, and left to form biofilms for 24 h at 37 °C. Experimental samples were quadruplicated, and control without antimicrobials was octuplicated.
Then, the liquid content of the test plates was discarded, and the plates were gently washed in still water from residual traces of unattached planktonic bacteria. Each well was supplied with 125 μL 0.1% aqueous solution of crystal violet dye for 10 min at room temperature to stain biofilm components left attached to the surface. After staining, the plates were washed with clear water once more to remove excessive dye and left to air-dry. To quantify the amount of the bound dye corresponding to the thickness of the formed biofilm, it was redissolved in 30% acetic acid, 200 μL of which was introduced into each well. After 15 min at room temperature, the content of the wells was mixed by repetitive pipetting to ensure complete dye extraction, and 125 μL of each sample was transferred well-by-well into 96-well clear flat-bottom plates for spectrophotometric examination. OD was measured at 580 nm. Final results were calculated as medians based on three independent experiments.
The minimal concentrations of AMPs and antiseptics causing a statistically significant inhibitory effect on biofilm formation (i.e., a statistically significant decrease compared with the control biofilm formed by the intact bacteria; Mann–Whitney U-test, p < 0.05) are shown in Table 3 and are later referenced as MECBF (for minimal effective concentration regarding biofilm formation). The exact value of such a minimal effect is admittedly small, within the range of a 10–20% decrease in the density of the emerging biofilm. Thus, the practical usefulness of such an effect, even if strengthened in combinations, is quite questionable; however, from the academic point of view, even slight changes can provide us with information on the mode of interaction between AMPs and antiseptics and allow us to make certain assumptions about the nature of such interactions.
Analyzing the combined action of AMPs and antiseptics (AS) in sub-microbicidal concentrations toward biofilms, we adopted the same approach based on the calculation of fractional indices as the one we used while testing antimicrobial activity on planktonic bacteria. For combinations, the series of concentrations from [MECBF(AMP) + MECBF(AS)], [½MECBF(AMP) + ½MECBF(AS)] and down to [1/32 × MECBF(AMP) + 1/32 × MECBF(AS)] was analyzed. […] The fractional indices, denoted here as fractional effective concentration indices (FECIs), were calculated as follows: FECI = [AMP]/MECBF(AMP) + [AS]/MECBF(AS), where [AMP] and [AS] are the concentration of AMP and antiseptic in a combination that has a statistically significant inhibitory effect on the formation of biofilms if compared with the intact control (Mann–Whitney U-test, p < 0.05). The minimal FECI > 4 was interpreted as antagonism, FECI ≤ 0.5 as synergy, 0.5 < FECI ≤ 1 as additivity, and 1 < FECI ≤ 4 as independent action.

[3] = test system: E. coli ESBL 521/17; experiment: microbe, parasite or virus in culture; format: cell-based, Escherichia coli
Protocol: In this regard the test plates were preincubated for 1 h at 37 °C with 0.1% bovine serum albumin (BSA) in distilled water before use. Bacteria were grown overnight at 37 °C with shaking in 2.1% Müller–Hinton broth (MHB), and then a small aliquot was transferred into the fresh portion of the same medium for another 2–3 h on the day of the experiment to provide us with the log phase bacterial suspension. Concentration of bacterial cells in suspension was evaluated based on absorbance at 620 nm and diluted down to 1 × 10^6 CFU/mL with MHB. Equal volumes of the prepared bacterial suspension in MHB and two-fold serial dilutions of the antimicrobials in 10 mM sodium phosphate (Na-P) buffer (pH 7.4) with 0.1% BSA were mixed and incubated overnight at 37 °C. The lowest concentration where no bacterial growth was observed the next day under visual examination was considered the minimal inhibitory concentration. The test was repeated at least three times, and the final MIC value was established as a median result. Each experiment was conducted in triplicates. Terasaki microplates (10 µL end volume, V-shaped bottom; Sarstedt, Nümbrecht, Germany) were used.

[4] = antiseptics and surfactants, 2.5% v/v RBC in PBS, 30 min, 37 °C, median of 3 independent experiments, prontosan as polyhexanide
[5] = antiseptics and surfactants, MHB, overnight 37 °C, median of 3–4 independent experiments, prontosan as polyhexanide
[6] = sub-microbicidal concentrations

Row | Compound | MECH of hemolysis of human erythrocytes [1, 4] | MECBF partially inhibiting bacterial biofilms [2] | MIC [3, 5] | MECH of hemolysis of human erythrocytes [1] | MIC ([3]; Escherichia coli, ESBL521/17, antiseptics and surfactants, MHB, overnight 37 °C, median of 3–4 independent experiments, prontosan as polyhexanide, read-out: MIC) | MECH [1] | Minimal FECI, AMP + CAPB, biofilm formation [2, 6] | Minimal FECI, AMP + DXD, biofilm formation [2, 6] | Minimal FECI, AMP + ETA, biofilm formation [2, 6] | Minimal FECI, AMP + PVG, biofilm formation ([2]; combination with poviargolum, sub-microbicidal concentrations) | Minimal FECI, AMP + PTS, biofilm formation [2, 6] | MIC ([3]; ESBL 521/17, 1 h)
1 | Cocamidopropyl betaine | 1 µg/mL | 1/32 | >50,000 µg/mL | – | – | – | – | – | – | – | – | –
2 | CC(O)(P(=O)(O)O)P(=O)(O)O [Etidronic acid] | – | 1/128 | – | 5000 µg/mL | 50 mg/mL | – | – | – | – | – | – | –
3 | [O-][n+]1c(CO)c(CO)[n+]([O-])c2ccccc21 [Dioxydin] | 500 µg/mL | 1/16 | 0.0156 mg/mL | – | – | higher than 0.5 mg/mL | – | – | – | – | – | –
4 | CC[C@H](C)[C@H](NC(=O)[C@H](CCCNC(=N)N)NC(=O)[C@@H](NC(=O)[C@@H]1CCCN1C(=O)[C@@H]1CCCN1C(=O)[C@H](CCCNC(=N)N)NC(=O)[C@H](CCCNC(=N)N)NC(=O)[C@H](Cc1ccccc1)NC(=O)[C@@H]1CCCN1C(=O)[C@H](CC(C)C)NC(=O)[C@H](CCCNC(=N)N)NC(=O)[C@H](Cc1ccccc1)NC(=O)[C@@H](N)CCCNC(=N)N)[C@@H](C)CC)C(=O)N[C@@H](Cc1c[nH]cn1)C(=O)N1CCC[C@H]1C(=O)N1CCC[C@H]1C(=O)N1CCC[C@H]1C(=O)N[C@@H](Cc1ccccc1)C(=O)N[C@@H](Cc1ccc(O)cc1)C(=O)N1CCC[C@H]1C(=O)N1CCC[C@H]1C(=O)N[C@@H](Cc1ccccc1)C(=O)N[C@@H](CCCNC(=N)N)C(=O)N[C@@H](CCCNC(=N)N)C(=O)N[C@@H](Cc1ccccc1)C(=O)N[C@@H](CC(C)C)C(=O)O [ChBac3.4] (H-RFRLPFRRPPIRIHPPPFYPPFRRFL-OH; N-terminus assumed) | – | 1/16 | – | – | – | – | 0.5 | 1 | 1.12 | 1 | 0.5 | 3.1 µM
5 | CC(C)C[C@H](NC(=O)[C@H](CCCNC(=N)N)NC(=O)CNC(=O)CNC(=O)[C@@H](N)CCCNC(=N)N)C(=O)N[C@H]1CSSC[C@@H](C(=O)N[C@H](C(=O)NCC(=O)N[C@@H](CCCNC(=N)N)C(N)=O)C(C)C)NC(=O)[C@H](C(C)C)NC(=O)[C@@H]2CSSC[C@H](NC(=O)[C@H](Cc3ccc(O)cc3)NC1=O)C(=O)N[C@@H](CCCNC(=N)N)C(=O)N[C@@H](CCCNC(=N)N)C(=O)N[C@@H](CCCNC(=N)N)C(=O)N[C@@H](Cc1ccccc1)C(=O)N2 [PG-1, protegrin 1] | – | 1/32 | – | 0.5 µM | – | – | 0.5 | 1.12 | 1.12 | – | 0.25 | 0.4 µM
